From PubChem BioAssay (NCI)
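Exposure lasted 48 hours, with cells grown in 96-well plates and compounds tested at five concentrations. The concentration for 50% growth inhibition is given as GI50. TGI is the concentration that stops growth completely.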

Key:
Assay in all cases: inhibition of tumour cell growth, NCI panel, 48 h
[1] = tested on: OVCAR-3 ovarian
[2] = tested on: COLO 205 colon
[3] = tested on: TK-10 renal
[4] = tested on: MDA-MB-231 breast
[5] = tested on: RPMI-8226 leukemia
[6] = tested on: UO-31 renal
[7] = tested on: SK-MEL-5 melanoma
[8] = tested on: U251 CNS
[9] = tested on: SK-MEL-28 melanoma
[10] = tested on: DU-145 prostate
[11] = tested on: SR leukemia
[12] = tested on: CAKI-1 renal
[13] = tested on: SK-MEL-2 melanoma
[14] = tested on: UACC-257 melanoma
[15] = tested on: HCC-2998 colon
[16] = tested on: MALME-3M melanoma
[17] = tested on: 786-0 renal
[18] = tested on: KM12 colon
[19] = tested on: SF-295 CNS
[20] = tested on: SNB-19 CNS
[21] = tested on: HS 578T breast
[22] = tested on: NCI-H226 lung
[23] = tested on: SNB-75 CNS
[24] = tested on: HOP-92 NSCLC
[25] = tested on: HCT-15 colon
[26] = tested on: NCI-H23 lung
[27] = tested on: HOP-62 NSCLC
[28] = tested on: RXF 393 renal
[29] = tested on: T-47D breast
[30] = tested on: OVCAR-4 ovarian
[31] = tested on: IGROV1 ovarian
[32] = tested on: A549 NSCLC
[33] = tested on: BT-549 breast
[34] = tested on: NCI-H522 lung
[35] = tested on: HL-60(TB) leukemia
[36] = tested on: MDA-MB-435
[37] = tested on: OVCAR-5 ovarian
[38] = tested on: LOX IMVI melanoma
[39] = tested on: SF-268 CNS
[40] = tested on: NCI/ADR-RES ovarian
[41] = tested on: ACHN renal
[42] = tested on: SK-OV-3 ovarian
[43] = tested on: MCF7 breast
[44] = tested on: OVCAR-8 ovarian
[45] = tested on: SF-539 CNS
[46] = tested on: UACC-62 melanoma
[47] = tested on: SW-620 colon
[48] = tested on: HT29 colon
[49] = tested on: CCRF-CEM leukemia
[50] = tested on: SN12C renal
[51] = tested on: K-562 leukemia
[52] = tested on: PC-3 prostate
[53] = tested on: NCI-H460 lung
[54] = tested on: HCT-116 colon
[55] = tested on: MOLT-4 leukemia

O=C(NCc1ccco1)C1CCN(S(=O)(=O)c2ccc(Cl)cc2)CC1
GI50 [1]: > 100 µM | TGI [1]: > 100 µM | GI50 [2]: > 100 µM | TGI [2]: > 100 µM | GI50 [3]: > 100 µM | TGI [3]: > 100 µM | GI50 [4]: > 100 µM | TGI [4]: > 100 µM | GI50 [5]: 94.9 µM | TGI [5]: > 100 µM | GI50 [6]: 86.6 µM | TGI [6]: > 100 µM | GI50 [7]: 53.5 µM | TGI [7]: > 100 µM | GI50 [8]: > 100 µM | TGI [8]: > 100 µM | GI50 [9]: > 100 µM | TGI [9]: > 100 µM | GI50 [10]: > 100 µM | TGI [10]: > 100 µM | GI50 [11]: 72.8 µM | TGI [11]: > 100 µM | GI50 [12]: > 100 µM | TGI [12]: > 100 µM | GI50 [13]: > 100 µM | TGI [13]: > 100 µM | GI50 [14]: > 100 µM | TGI [14]: > 100 µM | GI50 [15]: > 100 µM | TGI [15]: > 100 µM | GI50 [16]: > 100 µM | TGI [16]: > 100 µM | GI50 [17]: > 100 µM | TGI [17]: > 100 µM | GI50 [18]: > 100 µM | TGI [18]: > 100 µM | GI50 [19]: 81.6 µM | TGI [19]: > 100 µM | GI50 [20]: > 100 µM | TGI [20]: > 100 µM | GI50 [21]: > 100 µM | TGI [21]: > 100 µM | GI50 [22]: > 100 µM | TGI [22]: > 100 µM | GI50 [23]: > 100 µM | TGI [23]: > 100 µM | GI50 [24]: > 100 µM | TGI [24]: > 100 µM | GI50 [25]: 39.6 µM | TGI [25]: > 100 µM | GI50 [26]: > 100 µM | TGI [26]: > 100 µM | GI50 [27]: > 100 µM | TGI [27]: > 100 µM | GI50 [28]: > 100 µM | TGI [28]: > 100 µM | GI50 [29]: > 100 µM | TGI [29]: > 100 µM | GI50 [30]: 54.9 µM | TGI [30]: > 100 µM | GI50 [31]: > 100 µM | TGI [31]: > 100 µM | GI50 [32]: 78.3 µM | TGI [32]: > 100 µM | GI50 [33]: > 100 µM | TGI [33]: > 100 µM | GI50 [34]: 90.5 µM | TGI [34]: > 100 µM | GI50 [35]: > 100 µM | TGI [35]: > 100 µM | GI50 [36]: 35.4 µM | TGI [36]: > 100 µM | GI50 [37]: > 100 µM | TGI [37]: > 100 µM | GI50 [38]: 36.3 µM | TGI [38]: > 100 µM | GI50 [39]: > 100 µM | TGI [39]: > 100 µM | GI50 [40]: > 100 µM | TGI [40]: > 100 µM | GI50 [41]: > 100 µM | TGI [41]: > 100 µM | GI50 [42]: > 100 µM | TGI [42]: > 100 µM | GI50 [43]: 37.8 µM | TGI [43]: > 100 µM | GI50 [44]: > 100 µM | TGI [44]: > 100 µM | GI50 [45]: > 100 µM | TGI [45]: > 100 µM | GI50 [46]: 80.5 µM | TGI [46]: > 100 µM | GI50 [47]: > 100 µM | TGI [47]: > 100 µM | GI50 [48]: > 100 µM | TGI [48]: > 100 µM | GI50 [49]: 83.8 µM | TGI [49]: > 100 µM | GI50 [50]: > 100 µM | TGI [50]: > 100 µM | GI50 [51]: 39.2 µM | TGI [51]: > 100 µM | GI50 [52]: 73.8 µM | TGI [52]: > 100 µM | GI50 [53]: 47.5 µM | TGI [53]: > 100 µM | GI50 [54]: 59.8 µM | TGI [54]: > 100 µM | GI50 [55]: 74.1 µM | TGI [55]: > 100 µM
